The target in one experiment is T1, CD209 (Homo sapiens, UniProt Q9NNX6).
T1 sequence (Q9NNX6 1-404): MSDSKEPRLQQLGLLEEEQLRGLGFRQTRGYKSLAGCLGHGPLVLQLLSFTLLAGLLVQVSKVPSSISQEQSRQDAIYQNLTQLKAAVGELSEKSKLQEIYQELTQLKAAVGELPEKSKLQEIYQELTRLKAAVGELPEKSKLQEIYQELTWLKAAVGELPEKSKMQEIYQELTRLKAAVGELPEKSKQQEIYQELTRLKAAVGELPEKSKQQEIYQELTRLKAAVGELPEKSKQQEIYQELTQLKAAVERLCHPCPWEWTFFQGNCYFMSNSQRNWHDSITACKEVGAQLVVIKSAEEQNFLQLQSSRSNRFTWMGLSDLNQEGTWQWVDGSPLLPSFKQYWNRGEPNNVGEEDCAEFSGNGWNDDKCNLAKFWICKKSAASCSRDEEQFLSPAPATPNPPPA
The settings on record: read-out: affinity for CD209, Kd; cited from earlier work.

Another experiment deals with human neutrophils. Kind of experiment: human neutrophil adhesion to human fibronectin after TNF-α. In kind it is cell-based. The settings on record: 3 microgram/ml compound, 30 minutes, fibronectin-coated plate, FIG. 2. An excerpt: Human blood was collected into EDTA tubes (BD Bioscience, San Jose, Calif.) from adult volunteers who gave written consent and with specific approval from the Texas A&M University human subjects Institutional Review Board. Neutrophils were then isolated from the blood using Lympholyte-poly (Cedarlane Laboratories, Hornby, BC, Canada) following the manufacturer's protocol and resuspended in 2% bovine serum albumen (BSA) (fraction V, A3059; Sigma-Aldrich) in RPMI 1640 medium (Lonza, Allendale, N.J.). 96-well tissue culture plates (flat-bottom polystyrene, BD Bioscience) were pre-coated with 20 μg/ml of human plasma fibronectin (Trevigen, Gaithersburg, Md.) in phosphate buffered saline (PBS) for 30 minutes at 37° C. and then blocked with 2% BSA in RPMI for 1 hour at 37° C. 50 microliters of 5×10^5 cells/ml neutrophils were incubated with 3 microgram/ml (0.5 microliters of the stock solution) of compound 1 or 3 for 30 minutes at 37° C. in a 1.5 ml Eppendorf tube (Eppendorf, Hauppauge, N.Y.). When testing the effect of CD209 antibodies on neutrophil adhesion to human fibronectin, anti-human CD209 antibodies clone DCN46 (BD Biosciences, San Jose, Calif.), eB-h209 (eBioscience, San Jose, Calif.), H-200 (Santa Cruz Biotechnology, Dallas, Tex.), ab89186 (Abcam, Cambridge, Mass.), or 9E9A8 (Biolegend Inc, San Diego, Calif.) were incubated with neutrophils at a concentration of 1 microgram/ml (0.2 microliters of the stock solution) or the concentration indicated on the figure. Rat IgG2a was used as an isotype control for the anti-human CD209 antibody clone eB-h209. Mouse IgG2b was used as an isotype control for the anti-human CD209 antibody clone DCN46. Mouse IgG1 was used as an isotype control for the anti-human CD209 antibody clone 9E9A8. Rabbit IgG was used as an isotype control for the two rabbit anti-human CD209 antibodies clone H-200 and ab89186. […] After removing the media and washing the plates 3 times with PBS, the plates were air-dried, fixed, stained, and the number of neutrophils that remained in the wells was counted. […]

In general, Kd refers to the constant that tells how readily two partners part at equilibrium.

Turning to `CCC(=O)Nc1nc(C)c(-c2csc(Nc3ccc(N(C)C)cc3)n2)s1` [Compound 1], the Kd on CD209 was 1.6 µM. Besides, in the experiment on human neutrophils, the “neutrophil adhesion compared to the TNF-α control” value is “significantly reduced neutrophil adhesion”.

The values are drawn from patent US20160208002A1, “Compositions Associated with and Methods of Managing Neutrophil Movement” (priority 2013, published 2016).
